Data taken from the supplement of paper PMC11061612.

Legend:
Experiment in all cases: combination Emax (second highest fraction inhibited in the dose matrix, 72 h); higher = more inhibition; extreme values may be limits of the assay
[1] = test system: NCI-H1944 (Lung Adenocarcinoma)
Method in brief: (§1)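 Bliss excess equals the observed combination effect minus the expected value EA + EB − EA·EB, where EA and EB are the effects of each agent alone. Combination Emax is the second-highest inhibition within the matrix. Inhibition was scaled from CellTiter-Glo 2.0 luminescence, with 0 set by vehicle wells and 1 by blank wells, after 72 hours of two-drug dosing of cells plated in 1536-well plates.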

DK-MG (Glioblastoma) = test system: DK-MG (Glioblastoma)
Method in brief: as §1

[2] = test system: COR-L105 (Lung Adenocarcinoma)
Method in brief: as §1

[3] = test system: NCI-H1975 (Lung Adenocarcinoma)
Method in brief: as §1

[4] = test system: SCC90 (Head and Neck Carcinoma)
Method in brief: as §1

[5] = test system: JURL-MK1 (Chronic Myelogenous Leukemia)
Method in brief: as §1

[6] = test system: NCI-H1435 (Non-Small Cell Lung Carcinoma)
Method in brief: as §1

GCIY (Gastric Carcinoma) = test system: GCIY (Gastric Carcinoma)
Method in brief: as §1

HT-144 (Melanoma) = test system: HT-144 (Melanoma)
Method in brief: as §1

[7] = test system: TOV-21G (Ovarian Carcinoma)
Method in brief: as §1

[8] = test system: RPMI-8402 (T-Lymphoblastic Leukemia)
Method in brief: as §1

[9] = test system: C2BBe1 (Colorectal Carcinoma)
Method in brief: as §1

[10] = test system: TK (B-Cell Non-Hodgkin's Lymphoma)
Method in brief: as §1

SK-N-DZ (Neuroblastoma) = test system: SK-N-DZ (Neuroblastoma)
Method in brief: as §1

[11] = test system: HT-1197 (Bladder Carcinoma)
Method in brief: as §1

[12] = test system: BT-474 (Breast Carcinoma)
Method in brief: as §1

[13] = test system: GRANTA-519 (B-Cell Non-Hodgkin's Lymphoma)
Method in brief: as §1

[14] = test system: BC-1 (B-Cell Non-Hodgkin's Lymphoma)
Method in brief: as §1

SK-MEL-24 (Melanoma) = test system: SK-MEL-24 (Melanoma)
Method in brief: as §1

[15] = test system: SUP-HD1 (Hodgkin's Lymphoma)
Method in brief: as §1

SMILES	combination Emax [1]	combination Emax (DK-MG (Glioblastoma))	combination Emax [2]	combination Emax [3]	combination Emax [4]	combination Emax [5]	combination Emax [6]	combination Emax (GCIY (Gastric Carcinoma))	combination Emax (HT-144 (Melanoma))	combination Emax [7]	combination Emax [8]	combination Emax [9]	combination Emax [10]	combination Emax (SK-N-DZ (Neuroblastoma))	combination Emax [11]	combination Emax [12]	combination Emax [13]	combination Emax [14]	combination Emax (SK-MEL-24 (Melanoma))	combination Emax [15]
Cn1cnc2c(F)c(Nc3ccc(Br)cc3Cl)c(C(=O)NOCCO)cc21 [Selumetinib] + C=CCn1c(=O)c2cnc(Nc3ccc(N4CCN(C)CC4)cc3)nc2n1-c1cccc(C(C)(C)O)n1 [AZD1775] (first compound max 10 µM, partner max 1 µM)	0.706	0.408	0.534	0.492	0.825	1	0.209	0.475	0.812	0.702	1	0.569	0.93	0.971	0.507	0.346	0.869	0.993	0.68	0.727
Cn1cnc2c(F)c(Nc3ccc(Br)cc3Cl)c(C(=O)NOCCO)cc21 [Selumetinib] + CC(C)n1c(=O)n(C)c2cnc3cc(F)c(-c4ccc(OCCCN5CCCCC5)nc4)cc3c21 [AZD1390] (first compound max 10 µM, 7x7, partner max 0.3 µM)	0.285	0.323	0.402	0.342	0.774	0.973	0.13	0.396	0.734	0.259	0.0871	0.351	0.177	0.239	0.152	0.0709	0.095	0.328	0.495	0.224
Cn1cnc2c(F)c(Nc3ccc(Br)cc3Cl)c(C(=O)NOCCO)cc21 [Selumetinib] + CCN(CCO)CCCOc1ccc2c(Nc3cc(CC(=O)Nc4cccc(F)c4)[nH]n3)ncnc2c1 [AZD2811] (first compound max 10 µM, 7x7, partner max 1 µM)	0.381	0.38	0.387	0.423	0.827	0.994	0.106	0.371	0.786	0.48	0.754	0.484	0.262	0.621	0.223	0.0839	0.439	0.655	0.558	0.453
Cn1cnc2c(F)c(Nc3ccc(Br)cc3Cl)c(C(=O)NOCCO)cc21 [Selumetinib] + C[C@@H]1COCCN1C2=NC(=NC(=C2)C3(CC3)[S@](=N)(=O)C)C4=C5C=CNC5=NC=C4 [AZD6738] (first compound max 10 µM, 7x7, partner max 10 µM)	0.879	0.417	0.483	0.496	0.764	1	0.114	0.704	0.864	0.809	0.974	0.569	0.909	0.986	0.422	0.0449	0.909	0.923	0.56	0.668
CC(=O)Nc1cccc(-n2c(=O)n(C3CC3)c(=O)c3c(Nc4ccc(I)cc4F)n(C)c(=O)c(C)c32)c1 [Trametinib] + Cc1nc(-c2cn3c(n2)-c2ccc(-c4cnn(C(C)(C)C(N)=O)c4)cc2OCC3)n(C(C)C)n1 [Taselisib] (first compound max 1 µM, 7x7, partner max 10 µM)	0.985	0.969	0.9	0.96	0.997	1	0.896	0.99	1	0.817	0.777	0.916	0.169	0.521	0.76	0.841	0.189	0.546	0.997	0.616
CC1(C)CCC(CN2CCN(c3ccc(C(=O)NS(=O)(=O)c4ccc(NCC5CCOCC5)c([N+](=O)[O-])c4)c(Oc4cnc5[nH]ccc5c4)c3)CC2)=C(c2ccc(Cl)cc2)C1 [Venetoclax] + C1CN(CCC1(C(=O)N[C@@H](CCO)C2=CC=C(C=C2)Cl)N)C3=NC=NC4=C3C=CN4 [Capivasertib] (first compound max 1 µM, 7x7, partner max 3 µM)	0.249	0.301	0.23	0.562	0.813	0.291	0.154	0.442	0.383	0.646	0.498	0.362	0.996	0.307	0.326	0.383	0.411	0.523	0.361	0.877
CC1(C)CCC(CN2CCN(c3ccc(C(=O)NS(=O)(=O)c4ccc(NCC5CCOCC5)c([N+](=O)[O-])c4)c(Oc4cnc5[nH]ccc5c4)c3)CC2)=C(c2ccc(Cl)cc2)C1 [Venetoclax] + C=CCn1c(=O)c2cnc(Nc3ccc(N4CCN(C)CC4)cc3)nc2n1-c1cccc(C(C)(C)O)n1 [AZD1775] (first compound max 1 µM, partner max 1 µM)	0.728	0.452	0.372	0.393	0.838	0.999	0.35	0.824	0.509	0.703	1	0.39	1	0.999	0.487	0.516	1	1	0.401	0.921
CC1(C)CCC(CN2CCN(c3ccc(C(=O)NS(=O)(=O)c4ccc(NCC5CCOCC5)c([N+](=O)[O-])c4)c(Oc4cnc5[nH]ccc5c4)c3)CC2)=C(c2ccc(Cl)cc2)C1 [Venetoclax] + CCN(CCO)CCCOc1ccc2c(Nc3cc(CC(=O)Nc4cccc(F)c4)[nH]n3)ncnc2c1 [AZD2811] (first compound max 1 µM, 7x7, partner max 1 µM)	0.255	0.283	0.211	0.216	0.552	0.445	0.161	0.386	0.266	0.354	0.735	0.214	1	0.552	0.221	0.218	0.925	0.674	0.248	0.922
CC1(C)CCC(CN2CCN(c3ccc(C(=O)NS(=O)(=O)c4ccc(NCC5CCOCC5)c([N+](=O)[O-])c4)c(Oc4cnc5[nH]ccc5c4)c3)CC2)=C(c2ccc(Cl)cc2)C1 [Venetoclax] + CN(C)CCCOc1ccc(-c2ccc3ncc4c(c3c2)n(C2CCOCC2)c(=O)n4C)cn1 [AZD0156] (first compound max 1 µM, 7x7, partner max 1 µM)	0.228	0.292	0.186	0.216	0.324	0.262	0.17	0.403	0.217	0.18	0.188	0.253	0.969	0.256	0.198	0.175	0.388	0.555	0.281	0.761
CC1(C)CCC(CN2CCN(c3ccc(C(=O)NS(=O)(=O)c4ccc(NCC5CCOCC5)c([N+](=O)[O-])c4)c(Oc4cnc5[nH]ccc5c4)c3)CC2)=C(c2ccc(Cl)cc2)C1 [Venetoclax] + COc1cc(Nc2ncc3c(n2)-c2ccc(Cl)cc2C(c2c(F)cccc2OC)=NC3)ccc1C(=O)O [Alisertib] (first compound max 1 µM, 7x7, partner max 10 µM)	0.544	0.443	0.377	0.469	0.687	0.964	0.287	0.94	0.358	0.682	0.718	0.516	1	0.888	0.163	0.242	0.969	0.943	0.401	0.906
CC1(C)CCC(CN2CCN(c3ccc(C(=O)NS(=O)(=O)c4ccc(NCC5CCOCC5)c([N+](=O)[O-])c4)c(Oc4cnc5[nH]ccc5c4)c3)CC2)=C(c2ccc(Cl)cc2)C1 [Venetoclax] + C[C@@H]1COCCN1C2=NC(=NC(=C2)C3(CC3)[S@](=N)(=O)C)C4=C5C=CNC5=NC=C4 [AZD6738] (first compound max 1 µM, 7x7, partner max 10 µM)	0.892	0.336	0.421	0.433	0.373	1	0.177	0.879	0.718	0.785	0.992	0.461	1	0.946	0.441	0.206	0.99	0.933	0.454	0.911
CC1(C)CCC(CN2CCN(c3ccc(C(=O)NS(=O)(=O)c4ccc(NCC5CCOCC5)c([N+](=O)[O-])c4)c(Oc4cnc5[nH]ccc5c4)c3)CC2)=C(c2ccc(Cl)cc2)C1 [Venetoclax] + C[C@@H](Nc1cc(F)cc(F)c1)c1cc(C(=O)N(C)C)cc2c(=O)cc(N3CCOCC3)oc12 [AZD8186] (first compound max 1 µM, 7x7, partner max 3 µM)	0.184	0.372	0.24	0.22	0.29	0.095	0.203	0.641	0.159	0.149	0.431	0.318	1	0.256	0.126	0.163	0.437	0.264	0.321	0.839
